“Also recorded” adds a separate entry of the source.
Columns and labels:
[1] = system: HIV-1 integrase (C-terminal domain), eGFP-MBP-IN-WT; experiment: cellular integrase assay (integrase screening assay, nuclear import inhibition); assay type: cell-based; conditions: HEK 293T cells transfected with eGFP-MBP-IN-WT, fluorescence microscopy, FIG. 1
Procedure: In assessing suitability of a compound according to any of the formulas herein, an integrase screening assay can be conducted. In the present case, an exemplary such assay is a cellular integrase assay. A cellular integrase assay can be performed in a 24 well plate. The assay is designed to test compounds in 3-fold serial dilutions (10, 3.3, 1.1 and 0.33 μM) with 0.1% DMSO. Negative and positive control included eGFP-MBP-IN-R262/3/6A, eGFP-MBP-IN-K236/240 and eGFP-MBP-IN-WT respectively supplemented with 0.1% DMSO. Refinement of the assay for optimal results is feasible. For example, refinement herein yields the following protocol. HEK 293T cells (˜0.4*10^5 cells/ml) are seeded and incubated at 37° C. (5% CO2) for ˜3 days on Poly-L-lysine treated glass coverslips until 80-90% confluent (˜3.2*10^5 cells/ml). Next, cells are transfected with 1 μg of eGFP-MBP-INR262/3/6A, eGFP-MBP-IN-K236/240 and eGFP-MBP-IN-WT DNA plasmid simultaneously with test compounds, at varying concentrations mentioned above, using lipofectamine 2000 transfection reagent (μL) at a ratio of 1:2 DNA plasmid to lipofectamine. After 4 hrs of incubation (at 37° C., 5% CO2), the lipofectamine mix is removed and replaced with fresh medium containing serum in the presence of the test compounds. […] Images may be prepared using an Olympus 1X51 fluorescence microscope equipped with a camera by way of example. […]

HIV-1 lentiviral vector = HIV-1 lentiviral vector screening assay; assay type: cell-based; conditions: HeLa cells, compared with no drug
Procedure: For the vector assay HeLa cells can be utilized and the experiment can be performed in a suitable plate, such as a 24 well plate. […] A negative control, e.g., AZT, and a positive control as vector only and blank as un-infected are appropriately selected. Again, the concentration of DMSO was limited to 0.1%. Hela cells (˜3.2-10^5 cells/ml) were infected with HIV-1 lentiviral vector in the presence of the compounds to be tested and controls. After the first 24 hours of incubation at 37° C. (5% CO2), cells are replaced with fresh media containing test compounds and incubated for an additional 24 hrs. Cells are fixed with 4% paraformaldehyde in PBS and mounted in DAPI on glass slides for visualization and quantification. Images, of at least 2 fields per glass disk are obtained, such as images taken with an Olympus 1X51 fluorescence microscope equipped with a camera. EGFP fluorescence spanning an average area of 12*10^5 square pixels is quantified using Image J software, from which IC50 values can bee extrapolated using graph pad PRISM software.
For the vector assay HeLa cells were utilized and the HIV-1 lentiviral vector screening was performed in a 24 well plate. […] Cells were fixed with 4% paraformaldehyde in PBS and mounted in DAPI on glass slides for visualization and quantification. […]

HeLa cells = conditions: lentiviral vector screening, at high concentrations
Procedure: For the vector assay HeLa cells were utilized and the HIV-1 lentiviral vector screening was performed in a 24 well plate. […] As the negative control AZT was used, a positive control as vector only and blank as un-infected were additionally used. Again the concentration of DMSO was limited to 0.1%. Hela cells (˜3.2*10^5 cells/ml) were infected with HIV-1 lentiviral vector in the presence of the compound(s) tested and controls. After the first 24 hours of incubation at 37° C. (5% CO2), cells were replaced with fresh media containing test compounds and incubated for an additional 24 hrs. Cells were fixed with 4% paraformaldehyde in PBS and mounted in DAPI on glass slides for visualization and quantification. Images, of at least 2 fields per glass disk were taken with an Olympus 1X51 fluorescence microscope equipped with a camera.

Compound: Cc1ccc(S(=O)(=O)NCCCNS(=O)(=O)c2ccc(C)cc2)cc1 [compound 535, 4-methyl-N-[3-(4-methylbenzenesulfonamido)propyl] benzene sulfonamide]
- inhibition of nuclear import of integrase (nuclear exclusion phenotype) [1]: nuclear exclusion of the fusion protein in majority of cells; also recorded: exhibited inhibition sufficient to prevent nuclear import of integrase; also recorded: clearly demonstrates inhibition of nuclear import of IN
- inhibition of nuclear import of integrase (nuclear exclusion phenotype) ([1]; listed as representative compound): displayed inhibition of nuclear import of IN similar to that of the triple mutant chimeric IN
- inhibitory effect on HIV infectivity / HIV-1 replication, dose dependence (HIV-1 lentiviral vector; FIG. 2): exhibited an inhibitory effect in a dose dependent manor
- inhibitory effect on HIV infectivity / HIV-1 replication, dose dependence (HIV-1 lentiviral vector; FIG. 2, listed as representative compound): clearly inhibited HIV-1 replication in a dose-dependent manor
- cellular toxicity (HeLa cells): without introducing cellular toxicity

Source: patent US10301258B2, “Benzende sulfonamide derivatives as HIV integrase inhibitors” (priority 2014, dated 2019)
